Legend:
[1] = tested on: CD4+ T cells in PBMC from people with recent onset T1D; assay: CFSE-based proliferation assay, PBMC of people with T1D; format: cell-based, human; conditions: peptide 10 μM; for Cell division index (CDI): CFSE-labelled PBMC
Procedure: (§1) Blood was obtained by venepuncture. Peripheral blood mononuclear cells (PBMC) were isolated over Ficoll-paque (GE Healthcare) and washed twice in phosphate buffered saline (PBS) as described. The CFSE (5,6-carboxyfluorescein diacetate succinimidyl ester) proliferation assays were performed as described previously. CFSE-labelled PBMC were cultured with either: no antigen, full-length C-peptide (^PI33-63), or ^PI33-63 Q38E (referred to as Q6E), ^PI33-63 Q41E (referred to as Q9E), ^PI33-63 Q54E, (referred to as Q22E) ^PI33-63 Q63E (referred to as Q31E), or ^PI33-63 with all glutamines substituted for glutamic acid, (referred to as QallE). See Supplementary Table 5 for a detailed description of the peptides. Each peptide was used at a final concentration of 10 μM. Positive controls were tetanus toxoid (TT 10LfU/ml, Statens Serum Institut) and/or anti-CD3 (OKT3 10 ng/ml). The results are presented as a cell division index (CDI), the ratio of the number of CD4^+ T cells that have proliferated in the presence of antigen to the number of CD4^+ T cells that have proliferated in the absence of antigen.
(§2) Our analysis of CD4^+ Jurkat lines expressing TCRs derived from primary CD4^+ T cells used TCRs derived from CD4^+ T cells that were selected for their specificity for WT C-peptide. […] This may be due to Q to E substitutions being poorly tolerated by the TCRs that were selected based on their recognition of WT C-peptide. To address this, we measured polyclonal CD4^+ T-cell responses in PBMC from people with recent onset type 1 diabetes. (see Supplementary Tables 5 and 6 for details of each subject). […] Next, in a separate cohort we investigated CD4^+ T-cell responses to the five C-peptide variants with individual Q to E substitutions in PBMC of people with recent onset type 1 diabetes (Fig. 3B). We found, as expected, that a majority of PBMC samples responded to WT C-peptide, but responses to Q to E substituted C-peptide variants were not stronger, in fact in most cases they were weaker, than responses to WT C-peptide. (See Supplementary Tables 7–9 for results from individual subjects). Finally, we asked if people without T1D, but who carried the T1D-associated HLA alleles, HLA-DQ2, or HLA-DQ8 had stronger responses to Q to E substituted C-peptide variants (Fig. 3C). Here few subjects had response to WT C-peptide and only a minority had greater responses to Q to E substituted variants of C-peptide, compared to WT C-peptide.
(§3) Fig. 3 PBMC responses to WT and deamidated C-peptide variants. (A) Proliferation in responses, measured as a cell division index (CDI) to WT or QallE C-peptide were compared in 8 PBMC from 8 people with recent onset T1D. Responses from the same individual are linked. […] (B) PBMC proliferation responses to WT and C-peptide variants with individual Q to E substitution and QallE from people with recent onset T1D (B) and HLA matched control subjects who don't have T1D (C). Only difference which reached statistical significance are marked (* = P < 0.05). For responses in subjects without T1D, none of the differences between groups reached statistical significance, p > 0.05, by Wilcoxon matched pairs signed rank test of Log 10 transformed CDI data. Each point is a different individual, bars show the mean and the standard deviation for each group.

[2] = tested on: CD4+ T cells in PBMC from subjects without T1D; assay: CFSE-based proliferation assay, PBMC of subjects without T1D; format: cell-based, human; conditions: CFSE-labelled PBMC, peptide 10 μM, mean CDI
Procedure: as §1, §2, §3

## EAEDLQVGEVELGGGPGAGSLQPLALEGSLQ [Q9E, C-peptide variant with glutamine 9 substituted for glutamic acid]
[1]; T1D donor 9, mean CDI
  Cell division index (CDI): 3.9
[1]; T1D donor 10, mean CDI
  Cell division index (CDI): 1.3
[1]; T1D donor 11, mean CDI
  Cell division index (CDI): 0.8
[1]; T1D donor 12, mean CDI
  Cell division index (CDI): 8.0
[1]; T1D donor 13, mean CDI
  Cell division index (CDI): 38.4
[1]; T1D donor 14, mean CDI
  Cell division index (CDI): 11.1
[1]; T1D donor 15, mean CDI
  Cell division index (CDI): 5.1
[1]; T1D donor 16, mean CDI
  Cell division index (CDI): 3.7
[1]; T1D donor 17, mean CDI
  Cell division index (CDI): 11.3
[1]; T1D donor 18, mean CDI
  Cell division index (CDI): 3.4
[2]; donor 1 without T1D
  Cell division index (CDI): 1.0
[2]; donor 2 without T1D
  Cell division index (CDI): 1.4
[2]; donor 3 without T1D
  Cell division index (CDI): 1.2
[2]; donor 4 without T1D
  Cell division index (CDI): 0.8
[2]; donor 5 without T1D
  Cell division index (CDI): 6.1
[2]; donor 6 without T1D
  Cell division index (CDI): 3.4

## EAEDLEVGEVELGGGPGAGSLEPLALEGSLE [QallE, C-peptide with all four glutamines substituted for glutamic acid]
[1]; PBMC from 8 people with recent onset T1D, Fig. 3A, difference not statistically significant
  CD4+ T-cell proliferation response compared with WT C-peptide: slightly weaker response
[1]; T1D donor 1, mean CDI = proliferated CD4+ T cells with antigen / without antigen
  Cell division index (CDI): 3.5
[1]; T1D donor 2, mean CDI
  Cell division index (CDI): 8.6
[1]; T1D donor 3, mean CDI
  Cell division index (CDI): 2.1
[1]; T1D donor 4, mean CDI
  Cell division index (CDI): 2.9
[1]; T1D donor 5, mean CDI
  Cell division index (CDI): 4.8
[1]; T1D donor 6, mean CDI
  Cell division index (CDI): 1.5
[1]; T1D donor 7, mean CDI
  Cell division index (CDI): 2.5
[1]; T1D donor 8, mean CDI
  Cell division index (CDI): 15.9
[1]; T1D donor 9, mean CDI
  Cell division index (CDI): 0.3
[1]; T1D donor 10, mean CDI
  Cell division index (CDI): 1.0
[1]; T1D donor 11, mean CDI
  Cell division index (CDI): 1.0
[1]; T1D donor 12, mean CDI
  Cell division index (CDI): 1.4
[1]; T1D donor 13, mean CDI
  Cell division index (CDI): 24.7
[1]; T1D donor 14, mean CDI
  Cell division index (CDI): 15.1
[1]; T1D donor 15, mean CDI
  Cell division index (CDI): 21.3
[1]; T1D donor 16, mean CDI
  Cell division index (CDI): 0.7
[1]; T1D donor 17, mean CDI
  Cell division index (CDI): 2.0
[1]; T1D donor 18, mean CDI
  Cell division index (CDI): 1.5
[2]; donor 1 without T1D
  Cell division index (CDI): 15.8
[2]; donor 2 without T1D
  Cell division index (CDI): 1.2
[2]; donor 3 without T1D
  Cell division index (CDI): 0.9
[2]; donor 4 without T1D
  Cell division index (CDI): 1.3
[2]; donor 5 without T1D
  Cell division index (CDI): 1.7
[2]; donor 6 without T1D
  Cell division index (CDI): 7.8

## EAEDLQVGQVELGGGPGAGSLQPLALEGSLE [Q31E, C-peptide variant with glutamine 31 substituted for glutamic acid]
[1]; T1D donor 9, mean CDI
  Cell division index (CDI): 0.3
[1]; T1D donor 10, mean CDI
  Cell division index (CDI): 2.0
[1]; T1D donor 11, mean CDI
  Cell division index (CDI): 0.9
[1]; T1D donor 12, mean CDI
  Cell division index (CDI): 3.7
[1]; T1D donor 13, mean CDI
  Cell division index (CDI): 11.8
[1]; T1D donor 14, mean CDI
  Cell division index (CDI): 3.6
[1]; T1D donor 15, mean CDI
  Cell division index (CDI): 6.4
[1]; T1D donor 16, mean CDI
  Cell division index (CDI): 1.5
[1]; T1D donor 17, mean CDI
  Cell division index (CDI): 7.6
[1]; T1D donor 18, mean CDI
  Cell division index (CDI): 1.0
[2]; donor 1 without T1D
  Cell division index (CDI): 1.3
[2]; donor 2 without T1D
  Cell division index (CDI): 1.7
[2]; donor 3 without T1D
  Cell division index (CDI): 3.6
[2]; donor 4 without T1D
  Cell division index (CDI): 0.8
[2]; donor 5 without T1D
  Cell division index (CDI): 22.3
[2]; donor 6 without T1D
  Cell division index (CDI): 1.9

Source: article PMC9811213, “Glutamine deamidation does not increase the immunogenicity of C-peptide in people with type 1 diabetes” (Journal of Translational Autoimmunity, 2022)
